Results from patent US20030215465A1, “Use of conjugated acid derivatives” (priority 2002, published 2003).

Test system: influenza virus
Experiment: resistance inducing effect of CLA against viral airway infections in rats exposed intranasally to influenza virus
Type: in vivo
Details: rats fed 1% CLA (FFA) for 5 weeks before intranasal influenza exposure; FIG. 1

Substance: Conjugated Linoleic Acid [CLA]
- lungweight: increased
